The source of these data is patent US20130184222A1, “[…] ACTIVE COMPOSITIONS AND THEIR METHODS OF USE” (AGIOS PHARMACEUTICALS, INC, priority 2010, published 2013).

The target of the assay is IDH1 R132H (Homo sapiens, UniProt O75874, R132H). The assay is described as follows: In vitro assay for IDH1 R132H inhibitors (NADPH/aKG, resazurin detection). The format is biochemical. Particulars: 0.2 μg/ml IDH1 R132H, 50 minutes at room temperature. The procedure: Assays were conducted in a volume of 76 μl assay buffer (150 mM NaCl, 10 mM MgCl2, 20 mM Tris pH 7.5, 0.03% bovine serum albumin) as follows in a standard 384-well plate: To 25 ul of substrate mix (8 uM NADPH, 2 mM aKG), 1 μl of test compound was added in DMSO. The plate was centrifuged briefly, and then 25 μl of enzyme mix was added (0.2 μg/ml IDH1 R132H) followed by a brief centrifugation and shake at 100 RPM. The reaction was incubated for 50 minutes at room temperature, then 25 μl of detection mix (30 μM resazurin, […]) was added and the mixture further incubated for 5 minutes at room temperature. The conversion of resazurin to resorufin was detected by fluorescent spectroscopy at Ex544 Em590 c/o 590.
The compounds of Formula I set forth in Table 1 and the compounds set forth in Table 2 were tested in this assay and the results set forth below in Table 4A and 4B.

Where [1] appears, read: Table 4A, read-out: IC50 (uM), IDH1 R132H Inhibition.
The mark [2] stands for this setting: Table 4B, read-out: IC50, IDH1 R132H Inhibition.

Where two headings read alike, the source gives them in different places.

Sequence of IDH1 R132H (O75874 whole entry R132H): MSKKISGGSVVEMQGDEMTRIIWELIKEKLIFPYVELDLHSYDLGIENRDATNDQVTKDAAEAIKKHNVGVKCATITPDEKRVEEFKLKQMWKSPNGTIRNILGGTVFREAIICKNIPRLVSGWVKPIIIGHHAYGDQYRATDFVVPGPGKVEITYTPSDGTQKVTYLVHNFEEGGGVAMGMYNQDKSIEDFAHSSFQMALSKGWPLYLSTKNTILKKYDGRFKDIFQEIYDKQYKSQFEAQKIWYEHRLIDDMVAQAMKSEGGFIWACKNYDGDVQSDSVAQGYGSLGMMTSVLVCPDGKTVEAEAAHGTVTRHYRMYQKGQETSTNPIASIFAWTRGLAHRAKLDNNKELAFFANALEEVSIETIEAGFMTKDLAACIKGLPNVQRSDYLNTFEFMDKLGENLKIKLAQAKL

Regarding `O=C(NC1CCCCC1)C(c1ccc(-n2ccnc2)cc1)N(C(=O)Cc1cccs1)c1cccc(F)c1` (centres unmarked) [Compound 83], the 50% inhibitory concentration (IC50) under setting [1] lay in the range of 10 to 100 µM.
Still for that read-out and setting: the result for `O=C(NC1CCCCC1)C(c1ccc(C(F)(F)F)cc1)N(C(=O)Cc1cccs1)c1cccc(F)c1` (centres unmarked) [Compound 84] reads ≥ 100 µM.
As to `COCOc1ccc(C(C(=O)NC2CCCCC2)N(C(=O)Cc2cccs2)c2cccc(F)c2)cc1` (centres unmarked) [Compound 85], the IC50 under setting [1] is 1 to 10 µM.
Still for that read-out and setting: the result for `CCCCc1ccc(C(C(=O)NC2CCCCC2)N(C(=O)Cc2cccs2)c2cccc(F)c2)cc1` (centres unmarked) [Compound 86] reads ≥ 100 µM; that for `O=C(NC1CCCCC1)C(c1ccc(Br)o1)N(C(=O)Cc1cccs1)c1cccc(F)c1` (centres unmarked) [Compound 87], 0.1 to 1 µM; that for `CC(C)Cc1ccc(C(C(=O)NC2CCCCC2)N(C(=O)Cc2cccs2)c2cccc(F)c2)cc1` (centres unmarked) [Compound 88], ≥ 100 µM.
Same read-out and setting: the result for `Cc1cccc(C(C(=O)NC2CCCCC2)N(C(=O)Cc2cccs2)c2cccc(F)c2)c1` (centres unmarked) [Compound 89] reads 0.1 to 1 µM; that for `O=C(NC1CCCCC1)C(c1cccnc1)N(C(=O)Cc1cccs1)c1cccc(F)c1` (centres unmarked) [Compound 90], 1 to 10 µM; that for `O=C(NC1CCCCC1)C(c1cccc(O)c1)N(C(=O)Cc1cccs1)c1cccc(F)c1` (centres unmarked) [Compound 91], 0.1 to 1 µM.
On the same count and under the same terms, the result for `O=C(NC1CCCCC1)C(c1ccc(O)cc1)N(C(=O)Cc1cccs1)c1cccc(F)c1` (centres unmarked) [Compound 92] reads 0.1 to 1 µM; that for `CCCCCCCCOc1ccc(C(C(=O)NC2CCCCC2)N(C(=O)Cc2cccs2)c2cccc(F)c2)cc1` (centres unmarked) [Compound 93], 0.1 to 1 µM.
As for `O=C(NC1CCCCC1)C(c1cccs1)N(C(=O)Cc1cccs1)c1cccc(F)c1` (centres unmarked) [Compound 94], under setting [1], the IC50 is 0.1 to 1 µM.
On the same count and under the same terms, the result for `CC(=O)c1cccc(C(C(=O)NC2CCCCC2)N(C(=O)Cc2cccs2)c2cccc(F)c2)c1` (centres unmarked) [Compound 95] reads ≥ 100 µM; that for `O=C(NC1CCCCC1)C(c1cccc(C(F)(F)F)c1)N(C(=O)Cc1cccs1)c1cccc(F)c1` (centres unmarked) [Compound 96], 1 to 10 µM; that for `Cc1ccccc1C(C(=O)NC1CCCCC1)N(C(=O)Cc1cccs1)c1cccc(Cl)c1Cl` (centres unmarked) [Compound 97], 1 to 10 µM.
Still for that read-out and setting: the result for `Cc1ccccc1C(C(=O)NC1CCCCC1)N(C(=O)Cc1cccs1)c1ccccc1Br` (centres unmarked) [Compound 98] reads 0.1 to 1 µM.
Still for that read-out and setting: the result for `Cc1cccc(N(C(=O)Cc2cccs2)C(C(=O)NC2CCCCC2)c2ccccc2C)c1` (centres unmarked) [Compound 99] reads ≤ 0.1 µM; that for `O=C(NC1CCCCC1)C(c1ccccc1)N(C(=O)Cc1cccs1)c1ccccc1` (centres unmarked) [Compound 100], 0.1 to 1 µM.
Consider `Cc1ccccc1C(C(=O)NC1CCCCC1)N(C(=O)Cc1cccs1)c1ccc2c(c1)OCO2` (centres unmarked) [Compound 101], for which the IC50 under setting [1] was 0.1 to 1 µM.
As to `O=C(NC1CCCCC1)C(c1cc(F)cc(Cl)c1)N(C(=O)Cc1cccs1)c1cccc(F)c1` (centres unmarked) [Compound 102], the half-maximal inhibitory concentration (IC50) under setting [2] lay in the range of 0.1 to 1 µM.
Still for that read-out and setting: the result for `O=C(NC1CCCCC1)C(c1cc(Cl)ccc1Cl)N(C(=O)Cc1cccs1)c1cccc(F)c1` (centres unmarked) [Compound 103] reads 0.1 to 1 µM.
On the same count and under the same terms, the result for `O=C(NC1CCCCC1)C(c1ccccc1Br)N(C(=O)Cc1cccs1)c1cccc(F)c1` (centres unmarked) [Compound 104] reads ≤ 0.1 µM; that for `O=C(NC1CCCCC1)C(c1c(F)ccc(F)c1Cl)N(C(=O)Cc1cccs1)c1cccc(F)c1` (centres unmarked) [Compound 105], 0.1 to 1 µM; that for `O=C(NC1CCCCC1)C(c1cc(F)c(F)cc1F)N(C(=O)Cc1cccs1)c1cccc(F)c1` (centres unmarked) [Compound 106], 0.1 to 1 µM.
On the same count and under the same terms, for `O=C(NC1CCCCC1)C(c1cccc(Cl)c1)N(C(=O)Cc1cccs1)c1cccc(F)c1` (centres unmarked) [Compound 107] the value was 0.1 to 1 µM; for `O=C(NC1CCCCC1)C(c1ccccc1C(F)(F)F)N(C(=O)Cc1cccs1)c1cccc(F)c1` (centres unmarked) [Compound 108], 0.1 to 1 µM.
Consider `Cc1ccccc1C(C(=O)NC(C)(C)C)N(C(=O)Cc1cccs1)c1cccc(F)c1` (centres unmarked) [Compound 109], for which the IC50 under setting [2] lay in the range of 0.1 to 1 µM.
Still for that read-out and setting: the result for `Cc1ccccc1NC(=O)C(c1ccccc1C)N(C(=O)Cc1cccs1)c1cccc(F)c1` (centres unmarked) [Compound 110] reads 0.1 to 1 µM.
The same measure, in the same setting: for `Cc1ccccc1C(C(=O)NC1CCCCC1)N(C(=O)Cc1cccs1)c1cccnc1` (centres unmarked) [Compound 111] the value was 0.1 to 1 µM; for `CCC(=O)Nc1cccc(N(C(=O)Cc2cccs2)C(C(=O)NC2CCCCC2)c2ccccc2C)c1` (centres unmarked) [Compound 112], 0.1 to 1 µM; for `Cc1ccccc1C(C(=O)NC1CCCCC1)N(C(=O)Cc1cccs1)C1CCCCC1` (centres unmarked) [Compound 113], 0.1 to 1 µM.
The same measure, in the same setting: for `O=C(NC1CCCCC1)C(c1c(Br)ccc(Br)c1F)N(C(=O)Cc1cccs1)c1cccc(F)c1` (centres unmarked) [Compound 114] the value was 0.1 to 1 µM.
Take `O=C(NC1CCCCC1)C(c1cccc(Br)c1)N(C(=O)Cc1cccs1)c1cccc(F)c1` (centres unmarked) [Compound 115]: the IC50 under setting [2] is 0.1 to 1 µM.
The same measure, in the same setting: for `COc1ccccc1C(C(=O)NC1CCCCC1)N(C(=O)Cc1cccs1)c1cccc(F)c1` (centres unmarked) [Compound 116] the value was 0.1 to 1 µM; for `Cc1ccc(N(C(=O)Cc2cccs2)C(C(=O)NC2CCCCC2)c2ccccc2C)cc1Cl` (centres unmarked) [Compound 117], 0.1 to 1 µM; for `Cc1ccccc1C(C(=O)NC1CCCCC1)N(C(=O)CCl)c1cccc(F)c1` (centres unmarked) [Compound 118], 0.1 to 1 µM.
On the same count and under the same terms, the result for `Cc1ccccc1C(C(=O)NC1CCCCC1)N(C(=O)CNC1CC1)c1cccc(F)c1` (centres unmarked) [Compound 119] reads 0.1 to 1 µM; that for `Cc1ccccc1C(C(=O)NC1CCCCC1)N(C(=O)CNC1CCC1)c1cccc(F)c1` (centres unmarked) [Compound 120], 0.1 to 1 µM; that for `Cc1ccccc1C(C(=O)NC1CCCCC1)N(C(=O)CNC1CCCC1)c1cccc(F)c1` (centres unmarked) [Compound 121], 0.1 to 1 µM.
Same read-out and setting: for `Cc1ccccc1C(C(=O)NC1CCCCC1)N(C(=O)Cc1cccs1)c1cccc(C(F)(F)F)c1` (centres unmarked) [Compound 122] the value was 0.1 to 1 µM; for `Cc1ccccc1C(C(=O)NC1CCCCC1)N(C(=O)Cc1cccs1)c1cccc(N2CCOCC2)c1` (centres unmarked) [Compound 123], 0.1 to 1 µM; for `COc1cccc(N(C(=O)Cc2cccs2)C(C(=O)NC2CCCCC2)c2ccccc2C)c1` (centres unmarked) [Compound 124], 0.1 to 1 µM.
`Cc1ccccc1C(C(=O)NC1CCCCC1)N(C(=O)C1COc2ccccc2O1)c1cccc(F)c1` (centres unmarked) [Compound 125]: under setting [2], the IC50 is 0.1 to 1 µM.
The same measure, in the same setting: the result for `Cc1ccc(F)c(C(C(=O)NC2CCCCC2)N(C(=O)Cc2cccs2)c2cccc(F)c2)c1` (centres unmarked) [Compound 127] reads 0.1 to 1 µM.
Take `COc1ccc(F)c(C(C(=O)NC2CCCCC2)N(C(=O)Cc2cccs2)c2cccc(F)c2)c1` (centres unmarked) [Compound 128]: under setting [2], the IC50 is 0.1 to 1 µM.
Regarding `O=C(NC1CCCCC1)C(c1cc(F)ccc1Br)N(C(=O)Cc1cccs1)c1cccc(F)c1` (centres unmarked) [Compound 129], under setting [2], the IC50 fell in the range of 0.1 to 1 µM.
Take `Cc1cccc(C)c1C(C(=O)NC1CCCCC1)N(C(=O)Cc1cccs1)c1cccc(F)c1` (centres unmarked) [Compound 130]: the IC50 under setting [2] lay in the range of 0.1 to 1 µM.
On the same count and under the same terms, for `CC(=O)c1cccc(N(C(=O)Cc2cccs2)C(C(=O)NC2CCCCC2)c2ccccc2C)c1` (centres unmarked) [Compound 131] the value was 0.1 to 1 µM; for `Cc1ccccc1C(C(=O)NC1CCCCC1)N(C(=O)c1ccc2c(c1)OCO2)c1cccc(F)c1` (centres unmarked) [Compound 132], 0.1 to 1 µM.
As to `Cc1ccccc1C(C(=O)NC1CCCCC1)N(C(=O)CNc1cccc(F)c1)c1cccc(F)c1` (centres unmarked) [Compound 133], the IC50 under setting [2] fell in the range of 0.1 to 1 µM.
On to `Cc1ccccc1C(C(=O)NC1CCCCC1)N(C(=O)COc1ccccc1)c1cccc(F)c1` (centres unmarked) [Compound 136], for which the IC50 under setting [2] is 0.1 to 1 µM.
Still for that read-out and setting: the result for `O=C(NC1CCCCC1)C(c1cccc(F)c1)N(C(=O)Cc1cccs1)c1cccc(F)c1` (centres unmarked) [Compound 137] reads 0.1 to 1 µM.
Same read-out and setting: the result for `Cc1ccccc1C(C(=O)NC1CCCCC1)N(C(=O)c1cccs1)c1cccc(F)c1` (centres unmarked) [Compound 138] reads 0.1 to 1 µM; that for `Cc1ccccc1C(C(=O)NC1CCCCC1)N(C(=O)c1c(C)noc1C)c1cccc(F)c1` (centres unmarked) [Compound 139], 0.1 to 1 µM.
As to `Cc1ccccc1C(C(=O)NC1CCCCC1)N(C(=O)Cc1cccs1)c1cccc(Cl)c1` (centres unmarked) [Compound 140], the IC50 under setting [2] is ≤ 0.1 µM.
Same read-out and setting: for `Cc1ccccc1C(C(=O)NC1CCCCC1)N(C(=O)CN1CCCCC1)c1cccc(F)c1` (centres unmarked) [Compound 141] the value was 0.1 to 1 µM; for `C#CC(=O)N(c1cccc(F)c1)C(C(=O)NC1CCCCC1)c1ccccc1C` (centres unmarked) [Compound 142], 0.1 to 1 µM; for `Cc1ccccc1C(C(=O)NC1CCCCC1)N(C(=O)CN1CCc2ccccc2C1)c1cccc(F)c1` (centres unmarked) [Compound 143], 0.1 to 1 µM.
Still for that read-out and setting: for `Cc1ccc(N(C(=O)Cc2cccs2)C(C(=O)NC2CCCCC2)c2ccccc2C)cc1` (centres unmarked) [Compound 144] the value was 0.1 to 1 µM.
The same measure, in the same setting: for `Cc1ccccc1C(C(=O)NC1CCCCC1)N(C(=O)Cc1cccs1)c1ccc(F)cc1` (centres unmarked) [Compound 145] the value was 0.1 to 1 µM; for `Cc1ccccc1C(C(=O)NC1CCCCC1)N(C(=O)Cc1cccs1)c1cccc(Br)c1` (centres unmarked) [Compound 146], 0.1 to 1 µM.
Consider `Cc1ccccc1C(C(=O)NC1CCCCC1)N(C(=O)Cc1cccs1)c1ccccc1Cl` (centres unmarked) [Compound 147], for which the IC50 under setting [2] was 0.1 to 1 µM.
Still for that read-out and setting: the result for `Cc1ccccc1C(C(=O)NC1CCCCC1)N(C(=O)Cc1cccs1)c1ccc(Cl)cc1` (centres unmarked) [Compound 148] reads 0.1 to 1 µM.
On the same count and under the same terms, for `Cc1ccccc1C(C(=O)NC1CCCCC1)N(C(=O)Cc1cccs1)c1ccc2c(c1)OCCO2` (centres unmarked) [Compound 149] the value was 0.1 to 1 µM; for `Cc1ccccc1C(C(=O)NC1CCCCC1)N(C(=O)Cc1ccsc1)c1cccc(F)c1` (centres unmarked) [Compound 150], ≤ 0.1 µM.

By IC50 is commonly meant the concentration needed to halve the response being measured.
